Several values for one entry are separate records, joined by “and”; a condition that tells them apart may be missing. Identical values can stand only once.
Experiments:
Assay type in all cases: in vivo, Mus musculus
HepG2 tumor = assay: Example 1: tumor volume, tumor weight and TGI in HepG2 tumor bearing humanized mice
Method: (§1) Each group contains five mice. The human hepatocellular carcinoma cell line HepG2 were subcutaneously inoculated to the advanced immune deficiency mice. Total of 30 mice were included in this study.
2.2. […] The subcutaneous injection volume was […].
(§2) 3.1. […] The injection was performed using insulin syringe with the dosage of 10 mg/kg (Dosage of injection was changed to 20 mg/kg from Day 15) and injection volume of 10 mL/kg. […] The reference item was administered for G1. The procedure followed the standards of sample administration.
(§3) 3.2. The test item anti-hPD-L1 antibody or reference items were intraperitoneally injected to the mice on Day 8 after the inoculation of tumor cells. The injection was performed using insulin syringe with the dosage of 10 mg/kg (Dosage of injection was changed to 20 mg/kg from Day 15) and injection volume of 10 mL/kg. The test item anti-hPD-L1 was continuously administered on Day 8, 11, 15, 18, 22, 25, 29 and 32 for G4 and G6. The reference item was administered for G1. The procedure followed the standards of sample administration.
(§4) 3.3. […] The injection was performed using insulin syringe with the dosage of 1 mg/kg and injection volume of 5 mL/kg. […] The reference item was administered for G1. The procedure followed the standards of sample administration.
The measurement was performed from the next day of the inoculation. The tumor volumes were measured and recorded twice a week (Mon., Thur.). Tumor volume was calculated by ellipsoid equation according to the records ((major axis×minor axis×minor axis)×(π/6)).
Tumor volumes were used to calculate tumor growth inhibition (TGI) rates according to the following formula: TGI (%)=[1−(Ti−T0)/(Ci−C0)]×100, where Ti and Ci indicate the mean tumor volume in the treatment groups and vehicle group at the end of the experiment (Day 35). Whereas, T0 and C0 indicate the mean tumor volumes in the treatment group and vehicle group at the beginning of the experiment (Day 1).
(§5) Mice were sacrificed by CO2 euthanasia at the end of the study duration, and the connective tissue around tumor was resected. The tumor samples were then removed and weighed. The half tissue was fixed in 10% formaldehyde and then embedded in paraffin; the other half was prepared for the isolation of tumor-infiltrating lymphocytes (TILs).

[1] = Example 1: body weight and mortality of HepG2 tumor bearing humanized mice; details: OBI-3424 1 mg/kg IV, antibody 10 mg/kg IP (20 from Day 15)
Method: as §1, §2, §3, §4
The measurement was performed from the next day of the inoculation. The animal body weights were measured and recorded twice per week.

[2] = system: CD8^+ cytotoxic T cells (CTL) in tumor-infiltrating lymphocytes; assay: Example 1: flow cytometry, percentage of CTL cells in TILs
Method: as §5
(§6) The half of mouse tumors were dissected into smaller fragments using scalpels and then digested with a cocktail of collagenase, DNase I, and Hyaluronidase (Collagenase #C5138, DNase I #D5025, Hyaluronidase #H6254, SigmaAldrich) for at least 2 hours.
(§7) Cells were stained with the fluorescently conjugated surface antibodies and incubated for 30 minutes at 4° C., and then resuspended in staining buffer for flow cytometric analysis. Flow cytometry was done using a Navios EX Flow Cytometer (Beckman Coulter). Data were analyzed using the Kaluza Analysis Software (Beckman Coulter).

[3] = system: CD4^+ T helper cells in tumor-infiltrating lymphocytes; assay: Example 1: flow cytometry, percentage of TH cells in TILs; details: individual mice
Method: as §5, §6, §7

[4] = system: NK cells in tumor-infiltrating lymphocytes; assay: Example 1: flow cytometry, percentage of NK cells in TILs; details: individual mice
Method: as §5, §6, §7

[5] = system: PD-L1^+ cells in tumor-infiltrating lymphocytes; assay: Example 1: flow cytometry, percentage of PD-L1 cells in TILs; details: individual animal
Method: as §5, §6, §7

[6] = TILs, flow cytometer, individual mice
[7] = TILs, gate CD45^+CD8^+ cells, individual mice

## anti-hPD-1: Anti-Human PD-1 antibody, Pembrolizumab, Merck & Co., Inc.
HepG2 tumor; D 1, group mean, OBI-3424 1 mg/kg IV, antibody 10 mg/kg IP (20 from Day 15)
  Tumor volume, Mean: 354.80 mm^3
HepG2 tumor; D 4, group mean, OBI-3424 1 mg/kg IV, antibody 10 mg/kg IP (20 from Day 15)
  Tumor volume, Mean: 269.37 mm^3
HepG2 tumor; D 7, group mean, OBI-3424 1 mg/kg IV, antibody 10 mg/kg IP (20 from Day 15)
  Tumor volume, Mean: 301.61 mm^3
HepG2 tumor; D 11, group mean, OBI-3424 1 mg/kg IV, antibody 10 mg/kg IP (20 from Day 15)
  Tumor volume, Mean: 339.50 mm^3
HepG2 tumor; D 14, group mean, OBI-3424 1 mg/kg IV, antibody 10 mg/kg IP (20 from Day 15)
  Tumor volume, Mean: 393.76 mm^3
HepG2 tumor; D 18, group mean, OBI-3424 1 mg/kg IV, antibody 10 mg/kg IP (20 from Day 15)
  Tumor volume, Mean: 735.09 mm^3
HepG2 tumor; D 21, group mean, OBI-3424 1 mg/kg IV, antibody 10 mg/kg IP (20 from Day 15)
  Tumor volume, Mean: 880.07 mm^3
HepG2 tumor; D 25, group mean, OBI-3424 1 mg/kg IV, antibody 10 mg/kg IP (20 from Day 15)
  Tumor volume, Mean: 947.95 mm^3
HepG2 tumor; D 28, group mean, OBI-3424 1 mg/kg IV, antibody 10 mg/kg IP (20 from Day 15)
  Tumor volume, Mean: 1171.03 mm^3
HepG2 tumor; D 32, group mean, OBI-3424 1 mg/kg IV, antibody 10 mg/kg IP (20 from Day 15)
  Tumor volume, Mean: 1366.17 mm^3
HepG2 tumor; D 35, group mean (mean±SEM), OBI-3424 1 mg/kg IV, antibody 10 mg/kg IP (20 from Day 15)
  Tumor volume, Mean: 1613.37±338.07 mm^3 and 1613.37 mm^3
HepG2 tumor; D 35, group mean, OBI-3424 1 mg/kg IV, antibody 10 mg/kg IP (20 from Day 15)
  Tumor weight, Mean: 1266.48 mg
HepG2 tumor; Day 35, vs vehicle (G1), Student's t-test
  mean tumor volume compared with vehicle (in words): No statistically significant difference
HepG2 tumor; HepG2 humanized mouse model
  effect on tumor growth (conclusion in words): no effect on tumor growth
HepG2 tumor; from mean tumor volumes Day 35 vs Day 1, relative to vehicle, OBI-3424 1 mg/kg IV, antibody 10 mg/kg IP (20 from Day 15)
  TGI: −9.69%
[1]; Day 0, group mean
  Body Weight, Mean: 22.84 g
[1]; Day 1, group mean
  Body Weight, Mean: 22.47 g
[1]; Day 4, group mean
  Body Weight, Mean: 23.47 g
[1]; Day 7, group mean
  Body Weight, Mean: 23.48 g
[1]; Day 11, group mean
  Body Weight, Mean: 23.90 g
[1]; Day 14, group mean
  Body Weight, Mean: 23.94 g
[1]; Day 18, group mean
  Body Weight, Mean: 24.30 g
[1]; Day 21, group mean
  Body Weight, Mean: 23.59 g
[1]; Day 25, group mean
  Body Weight, Mean: 23.42 g
[1]; Day 28, group mean
  Body Weight, Mean: 22.52 g
[1]; Day 32, group mean
  Body Weight, Mean: 22.55 g
[1]; Day 35, group mean
  Body Weight, Mean: 22.77 g
[2]; Example 1, TILs at sacrifice, flow cytometry
  CD8^+ cytotoxic T cells (CTL) population in tumors compared with vehicle (in words): not observed
[2]; [6]
  CD25^+ CTL cells (CD45^+CD8^+ CD25^+) Total %: 0.26% and 0.10% and 0.65% and 0.84% and 0.41%
  CTL cells (CD45^+CD8^+) Total %: 9.30% and 6.22% and 21.30% and 11.17% and 24.91%
  PD-1^+ CTL cells (CD45^+CD8^+ PD-1^+) Total %: 10.83% and 9.53% and 15.71% and 10.88% and 14.41%
[2]; TILs, gate CD45^+ cells, individual mice
  CTL cells (CD45^+CD8^+) CD45^+ Gated %: 36.10% and 34.75% and 75.47% and 53.85% and 55.75%
[2]; [7]
  CD25^+ CTL cells (CD45^+CD8^+ CD25^+) CTL Gated %: 2.80% and 1.53% and 3.05% and 7.48% and 1.65%
  PD-1^+ CTL cells (CD45^+CD8^+ PD-1^+) CTL Gated %: 89.36% and 84.37% and 66.70% and 66.59% and 57.38%
[2]; TILs, individual mice
  CD25^+ CTL cells (CD45^+CD8^+ CD25^+) Cell count: 0.79 ×10^5 and 0.35 ×10^5 and 0.62 ×10^5 and 1.08 ×10^5 and 0.28 ×10^5
  CTL cells (CD45^+CD8^+) Cell count: 28.27 ×10^5 and 21.83 ×10^5 and 20.30 ×10^5 and 14.41 ×10^5 and 16.91 ×10^5
  PD-1^+ CTL cells (CD45^+CD8^+ PD-1^+) Cell count: 32.92 ×10^5 and 33.45 ×10^5 and 14.97 ×10^5 and 14.04 ×10^5 and 9.78 ×10^5
[3]; flow cytometer
  CD25^+ TH cells (CD45^+CD4^+ CD25^+) Total %: 0.71% and 0.67% and 0.82% and 1.28% and 0.45%
  PD-1^+ TH cells (CD45^+CD4^+ PD-1^+) Total %: 20.78% and 11.99% and 9.21% and 11.61% and 15.49%
  TH cells (CD45^+CD4^+) Total %: 19.18% and 11.07% and 9.76% and 11.17% and 18.23%
[3]; gate CD45^+ cells
  TH cells (CD45^+CD4^+) CD45^+ Gated %: 74.49% and 61.90% and 34.59% and 53.85% and 40.81%
[3]; gate CD45^+CD4^+ cells
  CD25^+ TH cells (CD45^+CD4^+CD25^+) TH Gated %: 3.70% and 6.05% and 8.35% and 11.42% and 2.44%
  PD-1^+ TH cells (CD45^+CD4^+ PD-1^+) TH Gated %: 96.11% and 90.08% and 83.23% and 82.55% and 85.27%
[3]
  CD25^+ TH cells (CD45^+CD4^+ CD25^+) Cell count: 2.16 ×10^5 and 2.35 ×10^5 and 0.78 ×10^5 and 1.65 ×10^5 and 0.31 ×10^5
  PD-1^+ TH cells (CD45^+CD4^+ PD-1^+) Cell count: 63.17 ×10^5 and 42.08 ×10^5 and 8.78 ×10^5 and 14.98 ×10^5 and 10.52 ×10^5
  TH cells (CD45^+CD4^+) Cell count: 58.31 ×10^5 and 38.86 ×10^5 and 9.30 ×10^5 and 14.41 ×10^5 and 12.38 ×10^5
[4]; flow cytometer
  CD16^+ NK cells (CD45^+CD56^+ CD16^+) Total %: 0.41% and 0.32% (2×) and 0.44% and 0.79%
  NK cells (CD45^+CD56^+) Total %: 2.91% and 1.08% and 3.01% and 1.93% and 4.76%
  PD-1^+ NK cells (CD45^+CD56^+PD-1^+) Total %: 2.67% and 1.13% and 2.36% and 1.46% and 1.78%
[4]; gate CD45^+ cells
  NK cells (CD45^+CD56^+) CD45^+ Gated %: 12.27% and 6.34% and 12.96% and 9.57% and 12.69%
[4]; gate CD45^+CD56^+ cells
  CD16^+ NK cells (CD45^+CD56^+ CD16^+) NK Gated %: 13.94% and 29.77% and 14.48% and 16.58% and 16.61%
  PD-1^+ NK cells (CD45^+CD56^+PD-1^+) NK Gated %: 99.81% and 100.00% and 87.08% and 98.31% and 64.90%
[4]
  CD16^+ NK cells (CD45^+CD56^+ CD16^+) Cell count: 1.25 ×10^5 and 1.12 ×10^5 and 0.42 ×10^5 and 0.41 ×10^5 and 0.54 ×10^5
  NK cells (CD45^+CD56^+) Cell count: 8.85 ×10^5 and 3.79 ×10^5 and 2.87 ×10^5 and 2.49 ×10^5 and 3.23 ×10^5
  PD-1^+ NK cells (CD45^+CD56^+PD-1^+) Cell count: 8.12 ×10^5 and 3.97 ×10^5 and 2.25 ×10^5 and 1.88 ×10^5 and 1.21 ×10^5
[5]
  CD45^+ cells Cell count (×10^6): 7.83 ×10^6 and 6.28 ×10^6 and 2.69 ×10^6 and 2.68 ×10^6 and 3.03 ×10^6
  CD45^+ cells Gated %: 41.15% and 30.42% and 47.95% and 36.87% and 63.31%
  CD45^+ cells Total %: 25.75% and 17.89% and 28.22% and 20.74% and 44.68%
  Total PD-L1^+ cells (PD-L1^+) Cell count (×10^5): 10.55 ×10^5 and 13.65 ×10^5 and 2.38 ×10^5 and 7.80 ×10^5 and 4.22 ×10^5
  Total PD-L1^+ cells (PD-L1^+), Total %: 3.47% and 3.89% and 2.50% and 6.05% and 6.21%
  Total PD-L1^+ cells (PD-L1^+), Total cells Gated %: 6.45% and 7.52% and 3.68% and 7.83% and 6.95%
  Total cells Cell count (×10^6): 16.37 ×10^6 and 18.15 ×10^6 and 6.47 ×10^6 and 9.97 ×10^6 and 6.06 ×10^6
  Total cells Gated %: 53.84% and 51.71% and 67.88% and 77.26% and 89.23%
  Total cells Total %: 53.84% and 51.71% and 67.88% and 77.26% and 89.23%

— patent US20240216401A1, “COMBINATION THERAPY BY USING AKR1C3-ACTIVATED COMPOUND WITH IMMUNE CHECKPOINT INHIBITOR” (OBI Pharma, Inc., priority 2021, published 2024)
